Key:
male rats [1] = test: Calculus prevention effect by DTPA (repeated intravenous administration, 2 weeks, two lots); assay type: in vivo; conditions: for Urinary occult blood: occurrences/inspections
Method: Toxicity studies by repeated intravenous administration were conducted on male rats for 2 weeks using, as a specimen, R-CHI3-DTPA-Gd to which DTPA was added. In this test, two lots (hereinafter called lot #1 and lot #2) of R-CHI3-DTPA-Gd were provided, and the following administered groups were set up. […] As control groups, were set up a group that was administered with a physiological saline and a group that was free from a chelating agent (i.e., administered with […] of lot (1) only). Except the physiological saline-administered group, the dose as R-CHI3-DTPA-Gd was 0.33 mmol/kg.

male rats [2] = test: Calculus prevention effect by chelating agents (repeated intravenous administration, 2 weeks); assay type: in vivo; conditions: for Calculi / Hyperplasia of vesical transitional epithelium / Urinary occult blood: mixed with R-CHI3-DTPA-Gd 0.33 mmol/kg i.v.; for Calculi / Hyperplasia of vesical transitional epithelium / Effect of inhibiting production of calculi: male rats; for Urinary occult blood: occurrences/total daily inspections for 14 days; for Effect of inhibiting production of calculi: specimens of R-CHI3-DTPA-Gd mixed with chelating agent, summary in words
Method: To R-CHI3-DTPA-Gd, was added diethylenetriaminepentaacetic acid (DTPA), its calcium complex, or calcium complex of ethylenediaminetetraacetic acid (EDTA). Using them as specimens, toxicity studies by repeated intravenous administration were conducted on male rats for 2 weeks. A group, which is called DTPA-10 group, was administered with a specimen of R-CHI3-DTPA-Gd mixed with DTPA in an amount equivalent to 10 mmol per 500 mmol of the DTPA-Gd portion of the R-CHI3-DTPA-Gd; a group, which is called DTPA-Ca-10 group, was administered with a specimen mixed with calcium complex of DTPA in an amount equivalent to 10 mmol; a group, which is called EDTA-Ca-1 group, was administered with a specimen mixed with calcium complex of EDTA in an amount equivalent 1 mmol; and a group, which is called EDTA-Ca-10 group, was administered with a specimen mixed with calcium complex of EDTA in an amount equivalent to 10 mmol. DTPA and others were mixed with R-CHI3-DTPA-Gd immediately before administration. As control groups, were set up a group that was administered with a physiological saline and a group that was free from a chelating agent (i.e., administered with R-CHI3-DTPA-Gd only). Except the physiological saline-administered group, the dose as R-CHI3-DTPA-Gd was 0.33 mmol/kg.
(The chelating agent-free group is estimated to include individuals that discharged calculi from their urinary bladders, judging from the hyperplasia of vesical transitional epithelium and the frequency of urinary occult blood.)

[3] = DTPA 1 mmol per 500 mmol DTPA-Gd portion, R-CHI3-DTPA-Gd lot #1, 0.33 mmol/kg i.v.
[4] = DTPA 1 mmol per 500 mmol DTPA-Gd portion, R-CHI3-DTPA-Gd lot #2, 0.33 mmol/kg i.v.
[5] = DTPA 1.3 mmol per 500 mmol DTPA-Gd portion, R-CHI3-DTPA-Gd lot #2, 0.33 mmol/kg i.v.
[6] = DTPA 3 mmol per 500 mmol DTPA-Gd portion, R-CHI3-DTPA-Gd lot #1, 0.33 mmol/kg i.v.
[7] = DTPA 10 mmol per 500 mmol DTPA-Gd portion, R-CHI3-DTPA-Gd lot #2, 0.33 mmol/kg i.v.
[8] = chelating agent 10 mmol per 500 mmol DTPA-Gd portion
[9] = chelating agent 1 mmol per 500 mmol DTPA-Gd portion

## O=C(O)CN(CCN(CC(=O)O)CC(=O)O)CCN(CC(=O)O)CC(=O)O [DTPA, diethylenetriaminepentaacetic acid]
Male rats [1]; [3]
  Calculi: 5/10
  Hyperplasia of vesical transitional epithelium: 7/10
  Urinary occult blood: 24/140
Male rats [1]; [4]
  Calculi: 5/10
  Hyperplasia of vesical transitional epithelium: 6/10
  Urinary occult blood: 27/140
Male rats [1]; [5]
  Calculi: 5/10
  Hyperplasia of vesical transitional epithelium: 7/10
  Urinary occult blood: 26/140
Male rats [1]; [6]
  Calculi: 5/10
  Hyperplasia of vesical transitional epithelium: 5/10
  Urinary occult blood: 17/140
Male rats [1]; [7]
  Calculi: 3/10
  Hyperplasia of vesical transitional epithelium: 4/10
  Urinary occult blood: 19/140
Male rats [2]; [8]
  Calculi: 0/10
  Hyperplasia of vesical transitional epithelium: 0/10
  Urinary occult blood: 8/140
Male rats [2]
  Effect of inhibiting production of calculi: significant effect

## O=C([O-])CN(CCN(CC(=O)[O-])CC(=O)O)CC(=O)O.[Ca+2] [EDTA-Ca]
Male rats [2]; [9]
  Calculi: 4/10
  Hyperplasia of vesical transitional epithelium: 2/10
  Urinary occult blood: 17/140
Male rats [2]; [8]
  Calculi: 1/10
  Hyperplasia of vesical transitional epithelium: 1/10
  Urinary occult blood: 6/140
Male rats [2]
  Effect of inhibiting production of calculi: week effect

## O=C([O-])CN(CCN(CCN(CC(=O)[O-])CC(=O)O)CC(=O)O)CC(=O)O.[Ca+2] [DTPA-Ca]
Male rats [2]; [8]
  Calculi: 0/10
  Hyperplasia of vesical transitional epithelium: 0/10
  Urinary occult blood: 3/140
Male rats [2]
  Effect of inhibiting production of calculi: significant effect

Reference: US20030186845A1, “Compositions for preventing urinary calculus” (priority 2000, published 2003)
